Test results as given in ChEMBL document CHEMBL5728138, “Triazolo-pyrimidine compounds and uses thereof” (2020).

Assays:
Adenosine receptor A2b = target: T1, Adenosine receptor A2b (Homo sapiens, UniProt P29275); experiment: (§1) FLIPR and cAMP Inhibition Assay: hADORA1/CHO (hA1 expressing) cells (Genscript) were plated at 1×10^4 cells/well into 384-well polystyrene plates one day before starting the experiment. On the day of experiment, the supernatant was discard and replaced with 40 µL of dye (FLIPR calcium 5 Assay Kit) per well and the plates were incubated for 60 mins at 37° C. plus 5% CO2. Then testing compounds were added at different concentrations for FLIPR™ inhibition assay. After a 400 s incubation with compound, […] was added into the cells, and the signal was captured by FLIPR.hA2a/CHO, hA2b/CHO and mA2a/CHO (Genscript) were plated at 5×10^3 cells/well into 384-well polystyrene plates at the day of experiment. Compounds were pre-incubated with cells for 30 min at 37° C., 5% CO2. Then […] was added to the cells and incubated for 30 min at 37° C., 5% CO2. Detection reagent (CISBIO) was added and the plates were incubated for 60 min at room temperature. The signal was captured by Envision.
T1 sequence (P29275 whole entry): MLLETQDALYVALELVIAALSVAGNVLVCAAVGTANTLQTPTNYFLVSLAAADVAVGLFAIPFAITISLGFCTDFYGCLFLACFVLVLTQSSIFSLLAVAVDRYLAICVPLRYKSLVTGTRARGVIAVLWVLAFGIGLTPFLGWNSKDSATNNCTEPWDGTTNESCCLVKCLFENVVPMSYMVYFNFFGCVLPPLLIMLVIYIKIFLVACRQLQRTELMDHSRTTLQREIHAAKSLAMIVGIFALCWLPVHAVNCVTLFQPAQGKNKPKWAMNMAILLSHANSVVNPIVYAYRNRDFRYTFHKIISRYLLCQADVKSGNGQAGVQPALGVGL

Adenosine receptor A2a [1] = target: Adenosine receptor A2a (Mus musculus, UniProt Q60613); experiment: as §1
Adenosine receptor A2a [2] = target: Adenosine receptor A2a (Homo sapiens, UniProt P29274); experiment: Binding Affinities to Different Adenosine Receptors: The compounds at different concentrations were incubate with hA1 membrane (from PerkinElmer) and [3H]-8-Cyclopentyl-1,3-dipropylxanthine (DPCPX) for 50 min at 25° C., meanwhile 100 μL 0.5% PEI solution was added into […]-96 GF/B filter plate for 60 min at 4° C., then […]-96 GF/B filter plate was washed twice with 50 ml wash buffer, the membrane mix was transferred into […]-96 GF/B filter plate, and the filter plate was washed 4 times before incubated at 55° C. for 10 min. At last, […] ULTIMA GOLD was added into each well, and CPM was read by TopCount.The compounds at different concentrations were incubate with hA2a membrane (from PerkinElmer) and [3H]-CGS21680 for 90 min at 25° C., meanwhile 100 μL 0.5% PEI solution was added into […]-96 GF/B filter plate for 60 min at 4° C., then […]-96 GF/B filter plate was washed twice with 50 ml wash buffer, the membrane mix was transferred into […]-96 GF/B filter plate, and the filter plate was washed 4 times before incubated at 55° C. for 10 min. At last, […] ULTIMA GOLD was added into each well, and CPM was read by TopCount.The compounds at different concentrations were incubate with hA2b membrane (from PerkinElmer) and [3H]-DPCPX for 60 min at 27° C., and the binding reactions were stopped by rapid filtration through 0.5% BSA coated […]-96 GF/C plates using cell harvester. […]
Adenosine receptor A1 = target: T2, Adenosine receptor A1 (Homo sapiens, UniProt P30542); experiment: as §1
T2 sequence (P30542 whole entry): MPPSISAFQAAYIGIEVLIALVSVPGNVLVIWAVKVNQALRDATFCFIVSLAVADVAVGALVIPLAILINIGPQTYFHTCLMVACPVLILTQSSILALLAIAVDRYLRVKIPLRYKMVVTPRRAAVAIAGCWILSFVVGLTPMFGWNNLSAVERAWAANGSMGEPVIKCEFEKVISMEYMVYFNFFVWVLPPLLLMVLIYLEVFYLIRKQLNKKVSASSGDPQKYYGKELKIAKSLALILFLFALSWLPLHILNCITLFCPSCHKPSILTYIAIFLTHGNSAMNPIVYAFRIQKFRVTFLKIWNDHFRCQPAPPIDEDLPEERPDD

Chain of Adenosine receptor A2a (Homo sapiens, UniProt P29274) (P29274 whole entry): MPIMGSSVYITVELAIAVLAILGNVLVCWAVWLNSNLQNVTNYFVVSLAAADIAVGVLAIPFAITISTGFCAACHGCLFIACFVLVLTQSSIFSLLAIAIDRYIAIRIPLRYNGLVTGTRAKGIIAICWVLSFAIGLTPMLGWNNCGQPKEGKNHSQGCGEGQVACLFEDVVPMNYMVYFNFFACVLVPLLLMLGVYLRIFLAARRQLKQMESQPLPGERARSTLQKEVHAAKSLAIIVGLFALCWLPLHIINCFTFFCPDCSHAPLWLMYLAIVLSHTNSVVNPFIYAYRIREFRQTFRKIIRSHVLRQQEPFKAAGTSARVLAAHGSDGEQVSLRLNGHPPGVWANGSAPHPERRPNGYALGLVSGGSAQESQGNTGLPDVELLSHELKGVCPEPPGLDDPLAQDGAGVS
Chain of Adenosine receptor A2a (Mus musculus, UniProt Q60613) (Q60613 whole entry): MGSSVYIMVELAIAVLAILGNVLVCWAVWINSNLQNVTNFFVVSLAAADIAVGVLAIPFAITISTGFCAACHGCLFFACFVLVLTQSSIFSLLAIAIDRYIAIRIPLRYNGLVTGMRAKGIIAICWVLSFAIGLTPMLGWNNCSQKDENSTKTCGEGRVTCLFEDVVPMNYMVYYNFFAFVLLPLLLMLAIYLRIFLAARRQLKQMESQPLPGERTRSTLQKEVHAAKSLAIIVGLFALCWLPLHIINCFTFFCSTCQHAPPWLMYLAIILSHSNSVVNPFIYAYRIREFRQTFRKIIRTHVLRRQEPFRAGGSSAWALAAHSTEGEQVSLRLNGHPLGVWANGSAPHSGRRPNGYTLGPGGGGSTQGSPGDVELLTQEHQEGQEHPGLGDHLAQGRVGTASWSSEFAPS

| Structure (SMILES) | IC50 (Adenosine receptor A2b) | IC50 (Adenosine receptor A2a [1]) | IC50 (Adenosine receptor A2a [2]) | IC50 (Adenosine receptor A1) |
| --- | --- | --- | --- | --- |
| Cc1cnc2ccc(-c3c(N4CCOCC4)nc(N)n4nc(Cc5c(F)cccc5F)nc34)cn12 | 44.5 nM | 2.9 nM | 0.2 nM |  |
| Nc1nc(-n2ccnn2)c(-c2ccc3nccn3c2)c2nc(Cc3ncccc3F)nn12 | 1110 nM | 170 nM | 103 nM | 779 nM |
